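Briefly, cells in 96-well plates were exposed to five compound concentrations for 48 h, and endpoints were estimated by linear interpolation. TGI: total growth inhibition.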
Experiments:
Test in all cases: DTP human tumour cell line panel, 48 h
SF-268 CNS = test system: SF-268 CNS
SW-620 colon = test system: SW-620 colon
OVCAR-4 ovarian = test system: OVCAR-4 ovarian
A549 NSCLC = test system: A549 NSCLC
UO-31 renal = test system: UO-31 renal
HOP-62 NSCLC = test system: HOP-62 NSCLC
KM20L2 colon = test system: KM20L2 colon
T-47D breast = test system: T-47D breast
TK-10 renal = test system: TK-10 renal
NCI-H522 lung = test system: NCI-H522 lung
XF 498 CNS = test system: XF 498 CNS
HCC-2998 colon = test system: HCC-2998 colon
MOLT-4 leukemia = test system: MOLT-4 leukemia
SNB-78 CNS = test system: SNB-78 CNS
COLO 205 colon = test system: COLO 205 colon
HCT-15 colon = test system: HCT-15 colon
LOX IMVI melanoma = test system: LOX IMVI melanoma
M14 melanoma = test system: M14 melanoma
DU-145 prostate = test system: DU-145 prostate
M19-MEL melanoma = test system: M19-MEL melanoma
SF-295 CNS = test system: SF-295 CNS
MDA-MB-231 breast = test system: MDA-MB-231 breast
HCT-116 colon = test system: HCT-116 colon
OVCAR-5 ovarian = test system: OVCAR-5 ovarian
SR leukemia = test system: SR leukemia
KM12 colon = test system: KM12 colon
HOP-92 NSCLC = test system: HOP-92 NSCLC
NCI-H226 lung = test system: NCI-H226 lung
ACHN renal = test system: ACHN renal
CAKI-1 renal = test system: CAKI-1 renal
NCI-H23 lung = test system: NCI-H23 lung
IGROV1 ovarian = test system: IGROV1 ovarian
SNB-19 CNS = test system: SNB-19 CNS
SK-MEL-2 melanoma = test system: SK-MEL-2 melanoma
PC-3 prostate = test system: PC-3 prostate
HL-60(TB) leukemia = test system: HL-60(TB) leukemia
DMS 114 small cell lung = test system: DMS 114 small cell lung
MALME-3M melanoma = test system: MALME-3M melanoma
CCRF-CEM leukemia = test system: CCRF-CEM leukemia
786-0 renal = test system: 786-0 renal
NCI-H460 lung = test system: NCI-H460 lung
EKVX NSCLC = test system: EKVX NSCLC
K-562 leukemia = test system: K-562 leukemia
UACC-62 melanoma = test system: UACC-62 melanoma
RXF 393 renal = test system: RXF 393 renal
RPMI-8226 leukemia = test system: RPMI-8226 leukemia
OVCAR-8 ovarian = test system: OVCAR-8 ovarian
SK-MEL-5 melanoma = test system: SK-MEL-5 melanoma
A498 renal = test system: A498 renal
UACC-257 melanoma = test system: UACC-257 melanoma
SK-MEL-28 melanoma = test system: SK-MEL-28 melanoma
HOP-18 NSCLC = test system: HOP-18 NSCLC
HS 578T breast = test system: HS 578T breast
SF-539 CNS = test system: SF-539 CNS
BT-549 breast = test system: BT-549 breast
U251 CNS = test system: U251 CNS
OVCAR-3 ovarian = test system: OVCAR-3 ovarian
LXFL 529 NSCLC = test system: LXFL 529 NSCLC
SN12C renal = test system: SN12C renal
DMS 273 small cell lung = test system: DMS 273 small cell lung
MCF7 breast = test system: MCF7 breast
HT29 colon = test system: HT29 colon
SK-OV-3 ovarian = test system: SK-OV-3 ovarian
SNB-75 CNS = test system: SNB-75 CNS
DLD-1 colon = test system: DLD-1 colon

`COc1cc2c(c(OC)c1OC)-c1cccc(=O)cc1C(NC(C)=O)CC2` (stereo not drawn) showed a TGI (SF-268 CNS) greater than 100 µM, a TGI (SW-620 colon) greater than 100 µM and a TGI (OVCAR-4 ovarian) greater than 100 µM. The TGI (A549 NSCLC) was greater than 100 µM, the TGI (UO-31 renal) was greater than 100 µM and the TGI (HOP-62 NSCLC) was greater than 39.6 µM. The TGI (KM20L2 colon) was 1.86 µM, the TGI (T-47D breast) was greater than 100 µM and the TGI (TK-10 renal) was greater than 100 µM. It also gave a TGI (NCI-H522 lung) of 0.203 µM, a TGI (XF 498 CNS) of 12.3 µM and a TGI (HCC-2998 colon) greater than 13.6 µM. For the same compound, the TGI (MOLT-4 leukemia) was greater than 100 µM, the TGI (SNB-78 CNS) was greater than 100 µM and the TGI (COLO 205 colon) was 1.79 µM. It also gave a TGI (HCT-15 colon) greater than 100 µM, a TGI (LOX IMVI melanoma) greater than 100 µM and a TGI (M14 melanoma) greater than 67.8 µM. For the same compound, the TGI (DU-145 prostate) was greater than 100 µM, the TGI (M19-MEL melanoma) was greater than 100 µM and the TGI (SF-295 CNS) was 0.267 µM. For the same compound, the TGI (MDA-MB-231 breast) was greater than 100 µM, the TGI (HCT-116 colon) was 25.6 µM and the TGI (OVCAR-5 ovarian) was greater than 100 µM. For the same compound, the TGI (SR leukemia) was greater than 100 µM, the TGI (KM12 colon) was 1.75 µM and the TGI (HOP-92 NSCLC) was 4.92 µM. For the same compound, the TGI (NCI-H226 lung) was 14.8 µM, the TGI (ACHN renal) was greater than 100 µM and the TGI (CAKI-1 renal) was greater than 100 µM. For the same compound, the TGI (NCI-H23 lung) was 11.1 µM, the TGI (IGROV1 ovarian) was greater than 100 µM and the TGI (SNB-19 CNS) was greater than 100 µM. For the same compound, the TGI (SK-MEL-2 melanoma) was greater than 24.8 µM, the TGI (PC-3 prostate) was greater than 100 µM and the TGI (HL-60(TB) leukemia) was 0.472 µM. It also gave a TGI (DMS 114 small cell lung) of 0.391 µM, a TGI (MALME-3M melanoma) greater than 100 µM and a TGI (CCRF-CEM leukemia) greater than 100 µM. The TGI (786-0 renal) was greater than 63.1 µM, the TGI (NCI-H460 lung) was 3.47 µM and the TGI (EKVX NSCLC) was greater than 100 µM. It also gave a TGI (K-562 leukemia) greater than 100 µM, a TGI (UACC-62 melanoma) greater than 100 µM and a TGI (RXF 393 renal) of 0.952 µM. It also gave a TGI (RPMI-8226 leukemia) greater than 100 µM, a TGI (OVCAR-8 ovarian) greater than 16.7 µM and a TGI (SK-MEL-5 melanoma) of 3.16 µM. For the same compound, the TGI (A498 renal) was 14.7 µM, the TGI (UACC-257 melanoma) was greater than 100 µM and the TGI (SK-MEL-28 melanoma) was greater than 100 µM. It also gave a TGI (HOP-18 NSCLC) greater than 100 µM, a TGI (HS 578T breast) greater than 100 µM and a TGI (SF-539 CNS) of 0.229 µM. It also gave a TGI (BT-549 breast) greater than 100 µM, a TGI (U251 CNS) greater than 100 µM and a TGI (OVCAR-3 ovarian) of 1.16 µM. The TGI (LXFL 529 NSCLC) was greater than 100 µM, the TGI (SN12C renal) was greater than 100 µM and the TGI (DMS 273 small cell lung) was greater than 100 µM. It also gave a TGI (MCF7 breast) greater than 100 µM.

With `COCN1C(=O)C2CC(/C=C/C(N)=O)=CN2C(=O)c2ccccc21` (stereo not drawn) the TGI (SF-268 CNS) was greater than 100 µM, the TGI (SW-620 colon) was greater than 100 µM and the TGI (OVCAR-4 ovarian) was greater than 100 µM. It also gave a TGI (A549 NSCLC) greater than 100 µM, a TGI (HOP-62 NSCLC) greater than 100 µM and a TGI (KM20L2 colon) greater than 100 µM. The TGI (TK-10 renal) was greater than 100 µM, the TGI (NCI-H522 lung) was greater than 100 µM and the TGI (XF 498 CNS) was greater than 100 µM. The TGI (HCC-2998 colon) was greater than 100 µM, the TGI (MOLT-4 leukemia) was greater than 100 µM and the TGI (SNB-78 CNS) was greater than 100 µM. The TGI (COLO 205 colon) was greater than 100 µM, the TGI (LOX IMVI melanoma) was greater than 100 µM and the TGI (M14 melanoma) was greater than 100 µM. For the same compound, the TGI (M19-MEL melanoma) was greater than 100 µM, the TGI (SF-295 CNS) was greater than 100 µM and the TGI (HCT-116 colon) was greater than 100 µM. The TGI (KM12 colon) was greater than 100 µM, the TGI (NCI-H226 lung) was greater than 100 µM and the TGI (NCI-H23 lung) was greater than 100 µM. The TGI (IGROV1 ovarian) was greater than 100 µM, the TGI (HT29 colon) was greater than 100 µM and the TGI (SNB-19 CNS) was greater than 100 µM. For the same compound, the TGI (HL-60(TB) leukemia) was greater than 100 µM, the TGI (DMS 114 small cell lung) was greater than 100 µM and the TGI (CCRF-CEM leukemia) was greater than 100 µM. For the same compound, the TGI (786-0 renal) was greater than 100 µM, the TGI (NCI-H460 lung) was greater than 100 µM and the TGI (EKVX NSCLC) was greater than 100 µM. It also gave a TGI (K-562 leukemia) greater than 100 µM, a TGI (UACC-62 melanoma) greater than 100 µM and a TGI (RXF 393 renal) greater than 100 µM. For the same compound, the TGI (RPMI-8226 leukemia) was greater than 100 µM, the TGI (SK-OV-3 ovarian) was greater than 100 µM and the TGI (OVCAR-8 ovarian) was greater than 100 µM. The TGI (SNB-75 CNS) was greater than 100 µM, the TGI (SK-MEL-5 melanoma) was greater than 100 µM and the TGI (SK-MEL-28 melanoma) was greater than 100 µM. It also gave a TGI (HOP-18 NSCLC) greater than 100 µM, a TGI (SF-539 CNS) greater than 100 µM and a TGI (DLD-1 colon) greater than 100 µM. It also gave a TGI (U251 CNS) greater than 100 µM, a TGI (OVCAR-3 ovarian) greater than 100 µM and a TGI (LXFL 529 NSCLC) greater than 100 µM. For the same compound, the TGI (SN12C renal) was greater than 100 µM and the TGI (DMS 273 small cell lung) was greater than 100 µM.

From PubChem BioAssay (NCI)
